Molecules are shown by their SMILES. Where a name gives a salt, the structure may show the parent alone.

For experiment [1], the target named is T1, human muscarinic acetylcholine M3 receptor (M3-ACh) (Homo sapiens, UniProt P20309).
T1 construct: expressed in transfected cells; host or cells: CHO-K1 (Chinese Hamster Ovary) cell membranes
Briefly: Muscarinic 3 Receptor Binding Assay, % inhibition specific binding at 1 μM. As to conditions: 1 μM compound, % inhibition specific [3H]-NMS binding. The procedure:
The following experimental procedure was used to determine the M3% inhibition at 1 μM of the compounds of Examples 116-263.
Muscarinic 3 Receptor Binding Assay
The activity (% inhibition specific binding) of compounds -on the M3 receptor is determined by competition binding of [^3H]N-methyl scopolamine (NMS) to CHO-K1 (Chinese Hamster Ovary) cell membranes expressing the human muscarinic acetylcholine M3 receptor (M3-ACh) in a scintillation proximity assay (SPA) format.
SPA beads are precoated with membranes and then incubated at 2 mg of beads per well with 1 μM compound of the invention, [^3H]NMS at 0.1 nM, quarter Kd (experimentally determined dissociation constant) and assay buffer (20 mM HEPES pH 7.4 containing 5 mM MgCl2). The assay is conducted in a final volume of 200 μL, in the presence of 1% (v/v) dimethyl sulphoxide (DMSO). Total binding of [^3H]NMS is determined in the absence of competing compound and non-specific binding of [^3H]NMS is determined in the presence of 1 μM atropine. The plates are incubated for 16 hours at room temperature and then read on Wallac Microbeta™ using a normalised ^3H protocol. The compound activity at 1 defined as % inhibition specific [^3H]-NMS binding, is determined.

Experiment [2] addresses T2, Adrenergic β2 (H292 cells) (Homo sapiens, UniProt P07550).
T2 construct: endogenous in cells; host or cells: H292 cells
The experiment in a line: Adrenergic β2 Mediated cAMP Production, single concentration 1 μM. It counts as cell-based. Particulars: NCI-H292, 1 μM compound, percentage of the maximum response generated by 1E-07M formoterol, read-out: β2 (% effect at 1 μM). The procedure:
The following experimental procedure was used to measure the beta-2% effect at 1 μM for the compounds of Examples 116-263. Adrenergic β2 Mediated cAMP Production Cell Preparation
H292 cells are grown in 225 cm2 flasks incubator at 37° C., 5% CO2 in RPMI medium containing 10% (v/v) FBS (foetal bovine serum) and 2 mM L-glutamine.
Compounds were prepared by an initial first dilution into DMSO to give 1 mM stock concentration. This was followed by a 1 in 10 dilution of the stock concentration (10 μl stock compound+90 μl DMSO) to give 0.1 mM compound.
A compound addition plate was prepared by making a further 1 in 25 dilution in assay buffer (HBSS solution containing 10 mM HEPES pH7.4 and 5 mM glucose) containing 4% dimethylsulfoxide. The final compound concentration in assay is 1 μM.
Adherent H292 cells are removed from tissue culture flasks by treatment with Accutase™ cell detachment solution for 15 minutes. Flasks are incubated for 15 minutes in a humidified incubator at 37° C., 5% CO2. Detached cells are re-suspended in RPMI media (containing 10% (v/v) FBS and 2 mM L-glutamine) at 0.1×10^6 cells per mL. 10000 cells in 100 μL are added to each well of a tissue-culture-treated 96-well plate and the cells incubated overnight in a humidified incubator at 37° C., 5% CO2. The culture media is removed and cells are washed twice with 100 μL assay buffer and replaced with 50 μL assay buffer (HBSS solution containing 10 mM HEPES pH7.4 and 5 mM glucose). Cells are rested at room temperature for 20 minutes after which time 25 μL of rolipram (1.2 mM made up in assay buffer) is added. Cells are incubated with rolipram for 10 minutes after which time 25 μl test compounds are added and the cells are incubated for 60 minutes at room temperature. The final rolipram concentration in the assay is 300 μM and final vehicle concentration is 1% (v/v) dimethylsulphoxide. The reaction is stopped by removing supernatants, washing once with 100 μL assay buffer and replacing with 50 μL lysis buffer. The cell monolayer is frozen at −80° C. for 30 minutes (or overnight).
AlphaScreen™ cAMP Detection
The concentration of cAMP (cyclic adenosine monophosphate) in the cell lysate is determined using AlphaScreen™ methodology. The frozen cell plate is thawed for 20 minutes on a plate shaker then 10 μL of the cell lysate is transferred to a 96-well white plate. 40 μL of mixed AlphaScreen™ detection beads (containing equal volumes of donor beads (pre-incubated with biotinylated cAMP in the dark for 30 minutes) and acceptor beads is added to each well and the plate incubated at room temperature for 3 hours in the dark. The AlphaScreen™ signal is measured using an EnVision spectrophotometer (Perkin-Elmer Inc.) with the recommended manufacturer's settings. Concentration of cAMP produced per well were calculated with reference to the cAMP standard curve determined in the same experiment and expressed as a percentage of the maximum response generated by 1E-07M formoterol.

Experiment [3] addresses T2, Adrenergic β2 (H292 cells). The experiment in a line: Assay for Adrenergic β2 Mediated cAMP Production (concentration response, AlphaScreen cAMP detection). It counts as cell-based. As to conditions: for EC50: cAMP production, 60 minutes at room temperature, 300 μM rolipram, read-out: β2 pEC50 (converted); for β2 Intrinsic activity: fraction relative to the maximum activity determined for formoterol. The procedure, abridged:
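Intrinsic activity is relative to the per-experiment formoterol maximum, with pEC50 from a four-parameter logistic fit of cAMP levels quantified by AlphaScreen against standards. Cells (H292) got 300 μM rolipram for 10 min, then compound for 60 min at room temperature, 1% DMSO final.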

Experiment [4] deals with T1, human muscarinic acetylcholine M3 receptor (M3-ACh). The experiment in a line: Muscarinic 3 Receptor Binding Assay ([3H]NMS competition, SPA). Particulars: [3H]NMS 0.1 nM, CHO-K1 cell membranes, 16 hours at room temperature; read-out: M3 pIC50 (converted). The procedure, abridged:
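Competition SPA binding of 0.1 nM [3H]NMS (quarter Kd) to membranes from CHO-K1 cells expressing human M3, in 20 mM HEPES pH 7.4, 5 mM MgCl2, 1% DMSO. Incubated 16 h at room temperature; non-specific binding with 1 µM atropine. pIC50 from 50% reduction of specific binding.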

T2 sequence (P07550 whole entry): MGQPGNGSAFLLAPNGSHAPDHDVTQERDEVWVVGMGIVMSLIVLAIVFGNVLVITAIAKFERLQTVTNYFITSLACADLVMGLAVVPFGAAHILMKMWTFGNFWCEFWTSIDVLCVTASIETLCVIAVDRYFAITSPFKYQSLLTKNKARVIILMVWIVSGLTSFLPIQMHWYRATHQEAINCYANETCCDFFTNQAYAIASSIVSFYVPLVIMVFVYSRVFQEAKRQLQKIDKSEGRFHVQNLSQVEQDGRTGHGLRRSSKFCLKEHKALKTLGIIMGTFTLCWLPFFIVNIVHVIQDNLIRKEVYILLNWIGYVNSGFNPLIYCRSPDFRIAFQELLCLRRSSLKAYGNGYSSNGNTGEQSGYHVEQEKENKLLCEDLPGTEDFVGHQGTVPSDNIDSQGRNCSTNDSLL
T1 sequence (P20309 whole entry): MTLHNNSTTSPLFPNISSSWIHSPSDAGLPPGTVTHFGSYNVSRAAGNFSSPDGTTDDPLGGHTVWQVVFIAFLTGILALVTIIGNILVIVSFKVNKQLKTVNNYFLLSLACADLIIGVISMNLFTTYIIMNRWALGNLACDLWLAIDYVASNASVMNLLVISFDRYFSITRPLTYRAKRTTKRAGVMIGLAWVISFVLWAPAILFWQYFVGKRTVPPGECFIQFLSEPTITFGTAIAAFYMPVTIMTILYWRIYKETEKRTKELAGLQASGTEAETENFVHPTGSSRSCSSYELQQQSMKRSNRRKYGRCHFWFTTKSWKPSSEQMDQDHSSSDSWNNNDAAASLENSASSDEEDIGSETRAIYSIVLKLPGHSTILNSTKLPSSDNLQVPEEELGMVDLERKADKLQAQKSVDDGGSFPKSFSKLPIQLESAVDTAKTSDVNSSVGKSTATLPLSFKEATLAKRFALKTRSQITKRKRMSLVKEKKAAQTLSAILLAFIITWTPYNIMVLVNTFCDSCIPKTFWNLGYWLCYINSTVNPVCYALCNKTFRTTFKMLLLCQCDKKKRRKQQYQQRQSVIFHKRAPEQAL

In experiment [1], `Cc1nonc1CC(=O)N1CCOC2(CCN(Cc3cc(F)cc(CCNC[C@H](O)c4ccc(O)c5[nH]c(=O)sc45)c3)CC2)C1` [Example 163, (R)-7-(2-(3-fluoro-5-((4-(2-(4-methyl-1,2,5-oxadiazol-3-yl)acetyl)-1-oxa-4,9-diazaspiro[5.5]undecan-9-yl)methyl)phenethylamino)-1-hydroxyethyl)-4-hydroxybenzo[d]thiazol-2(3H)-one] displayed an inhibition at 1 µM of 25%. The activation at 1 µM in experiment [2] is 95%.
On to `Cc1ccccc1C(=O)N1CCOC2(CCN(Cc3cc(F)cc(CCNC[C@H](O)c4ccc(O)c5[nH]c(=O)sc45)c3)CC2)C1` [Example 121, (R)-7-(2-(3-fluoro-5-((4-(2-methylbenzoyl)-1-oxa-4,9-diazaspiro[5.5]undecan-9-yl)methyl)phenethylamino)-1-hydroxyethyl)-4-hydroxybenzo[d]thiazol-2(3H)-one], for which the inhibition at 1 µM in experiment [1] worked out at 28%. The activation at 1 µM in experiment [2] worked out at 85%.
`Cc1occc1C(=O)N1CCOC2(CCN(CCCCCCCCCNC[C@H](O)c3ccc(O)c4[nH]c(=O)sc34)CC2)C1` [Example 197, (R)-4-hydroxy-7-(1-hydroxy-2-(9-(4-(2-methylfuran-3-carbonyl)-1-oxa-4,9-diazaspiro[5.5]undecan-9-yl)nonylamino)ethyl)benzo[d]thiazol-2(3H)-one] displayed an inhibition at 1 µM in experiment [1] of 97%. Also, the activation at 1 µM in experiment [2] came to 78%.
`Cc1nc2cc(C(=O)N3CCOC4(CCN(CCCCCCCCCNC[C@H](O)c5ccc(O)c6[nH]c(=O)sc56)CC4)C3)ccc2s1` [Example 215, (R)-4-hydroxy-7-(1-hydroxy-2-(9-(4-(2-methylbenzo[d]thiazole-5-carbonyl)-1-oxa-4,9-diazaspiro[5.5]undecan-9-yl)nonylamino)ethyl)benzo[d]thiazol-2(3H)-one] registered an inhibition at 1 µM in experiment [1] of 94%. For the same compound, in experiment [2], the activation at 1 µM came out at 89%.
As to `Cc1csc(C(=O)N2CCOC3(CCN(CCOc4ccc(CNC[C@H](O)c5ccc(O)c6[nH]c(=O)sc56)cc4)CC3)C2)c1` [Example 254, (R)-4-hydroxy-7-(1-hydroxy-2-(4-(2-(4-(4-methylthiophene-2-carbonyl)-1-oxa-4,9-diazaspiro[5.5]undecan-9-yl)ethoxy)benzylamino)ethyl) benzo[d]thiazol-2(3H)-one], in experiment [1], testing at 1 µM gave an inhibition of 92%. In addition, the activation at 1 µM in experiment [2] turned out to be 71%.
Take `Cc1ccc(C(=O)N2CC(F)(F)OC3(CCN(Cc4cccc(CCNC[C@H](O)c5ccc(O)c6[nH]c(=O)ccc56)c4)CC3)C2)s1` [Example 37, (R)-5-(2-(3-((2,2-Difluoro-4-(5-methylthiophene-2-carbonyl)-1-oxa-4,9-diazaspiro[5.5]undecan-9-yl)methyl)phenethylamino)-1-hydroxyethyl)-8-hydroxyquinolin-2(1H)-one ditrifluoroacetate]: in experiment [3], the EC50 was 3.16 nM and the “β2 Intrinsic activity” value came to 0.9. For the same compound, the IC50 in experiment [4] was 3.16 nM.
Regarding `CC(C)c1nc(C(=O)N2CCOC3(CCN(Cc4csc(CCNC[C@H](O)c5ccc(O)c6[nH]c(=O)sc56)c4)CC3)C2)cs1` [Example 278, (R)-4-hydroxy-7-(1-hydroxy-2-(2-(4-((4-(2-isopropylthiazole-4-carbonyl)-1-oxa-4,9-diazaspiro[5.5]undecan-9-yl)methyl)thiophen-2-yl)ethylamino)ethyl)benzo[d]thiazol-2(3H)-one ditrifluoroacetate], in experiment [3], the EC50 was 3.98 nM and the “β2 Intrinsic activity” value is listed as 1.0. The IC50 in experiment [4] is 0.398 nM.
The like results for `O=C(c1csc(C2CCCC2)n1)N1CCOC2(CCN(Cc3cc(F)cc(CCNC[C@H](O)c4ccc(O)c5[nH]c(=O)sc45)c3)CC2)C1` [Example 59, (R)-7-(2-(3-((4-(2-Cyclopentylthiazole-4-carbonyl)-1-oxa-4,9-diazaspiro[5.5]undecan-9-yl)methyl)-5-fluorophenethylamino)-1-hydroxyethyl)-4-hydroxybenzo[d]thiazol-2(3H)-one ditrifluoroacetate] were, in that order, 15.8 nM, 1 and 7.94 nM.
The like results for `Cc1nc2cc(C(=O)N3CCOC4(CCN(Cc5cc(CCNC[C@H](O)c6ccc(O)c7[nH]c(=O)sc67)cs5)CC4)C3)ccc2s1` [Example 49, (R)-4-Hydroxy-7-(1-hydroxy-2-(2-(5-((4-(2-methylbenzo[d]thiazole-5-carbonyl)-1-oxa-4,9-diazaspiro[5.5]undecan-9-yl)methyl)thiophen-3-yl)ethylamino)ethyl)benzo[d]thiazol-2(3H)-one ditrifluoroacetate] were, in that order, 7.94 nM, 0.9 and 39.8 nM.
On to `CC(C)c1ncc(C(=O)N2CCOC3(CCN(Cc4cc(F)cc(CCNC[C@H](O)c5ccc(O)c6[nH]c(=O)sc56)c4)CC3)C2)s1` [Example 55, (R)-7-(2-(3-Fluoro-5-((4-(2-isopropylthiazole-5-carbonyl)-1-oxa-4,9-diazaspiro[5.5]undecan-9-yl)methyl)phenethylamino)-1-hydroxyethyl)-4-hydroxybenzo[d]thiazol-2(3H)-one ditrifluoroacetate], for which, in experiment [3], the EC50 was 6.31 nM and the “β2 Intrinsic activity” value worked out at 1. The IC50 in experiment [4] is 63.1 nM.
For the compound `CC(C)c1ncc(C(=O)N2CCOC3(CCN(CCCCCCCCCNC[C@H](O)c4ccc(O)c5[nH]c(=O)sc45)CC3)C2)s1` [Example 115, (R)-4-Hydroxy-7-(1-hydroxy-2-(9-(4-(2-isopropylthiazole-5-carbonyl)-1-oxa-4,9-diazaspiro[5.5]undecan-9-yl)nonylamino)ethyl)benzo[d]thiazol-2(3H)-one formate], in experiment [3], the EC50 was 6.31 nM and the “β2 Intrinsic activity” value worked out at 0.8. In addition, the IC50 in experiment [4] was 7.94 nM.
On the same counts, the results for `CC(C)c1cc(C(=O)N2CCOC3(CCN(CCCCCCCNC[C@H](O)c4ccc(O)c5[nH]c(=O)sc45)CC3)C2)cs1` [Example 284, (R)-4-Hydroxy-7-(1-hydroxy-2-(7-(4-(5-isopropylthiophene-3-carbonyl)-1-oxa-4,9-diazaspiro[5.5]undecan-9-yl)heptylamino)ethyl)benzo[d]thiazol-2(3H)-one formate] are 12.6 nM, 0.9 and 2 nM.

Values taken from patent US8148373B2, “Compounds” (AstraZeneca AB, priority 2008, dated 2012).
